Experimental data published in publication PMC11672562, “Synthesis and Antibacterial Activity of New 6″-Modified Tobramycin Derivatives” (Antibiotics, 2024).
In brackets after ≈: the same amount, converted by molar mass.

How the values were obtained:
MTT cytotoxicity assay = type: cell-based; conditions: human, MTT test, HEK293T cells
Experimental: An MTT assay was conducted to assess the cytotoxicity of compounds on HEK293T cell lines. Cell line HEK293T was kindly provided by Dr. E. Knyazhanskaya. A total of 2500 cells per well were seeded into 96-well plates containing 100 μL of DMEM/F12 medium (Paneco LLC, Moscow, Russia) and incubated at 37 °C with 5% CO2 for 24 h prior to treatment. Dilutions of the test compounds 4a, 4b, 6a, and 6b, prepared in deionized sterile water, were added in 11 μL aliquots to achieve final concentrations ranging from 8.75 to 140 μg/mL (five dilutions per compound) in triplicate. The cells were incubated with the compounds for 72 h, after which 0.5 mg/mL of MTT reagent (Paneco LLC, Russia) was added. Following a 1.5 h incubation, the medium was removed, and 120 μL of DMSO was added to dissolve the blue formazan derivative formed by metabolically active cells. The absorbance at 565 nm was measured using a plate reader, and the data were normalized to untreated control cells. The half-maximal inhibitory concentration (IC50) was calculated using GraphPad Prism 5 software (GraphPad Software, Inc., San Diego, CA, USA).

[1] = system: resistant clinical isolates of P. aeruginosa; experiment: MIC against resistant clinical isolates of P. aeruginosa; type: cell-based; conditions: for MIC: Pseudomonas aeruginosa
Experimental: (§1) The microbial strains used in this study were obtained from the collection of the Gause Institute of New Antibiotics. […] Storage was carried out in accordance with CLSI guidelines. Prior to experimentation, the bacterial strains were revived from cryopreservation by inoculating them onto trypticase soy agar (Becton, Dickinson, France) and incubating at (36 ± 1) °C for 16–24 h. Individual morphologically homogeneous colonies were then suspended in sterile physiological saline, and the turbidity of the suspension was adjusted to 0.5 McFarland units using a DEN-1 spectrophotometer (Biosan, Riga, Latvia), which corresponds to a concentration of 1.5 × 10^8 CFU/mL.
(§2) The samples were dissolved in sterile distilled water or dimethyl sulfoxide (DMSO), depending on the physicochemical properties of the compounds under investigation, to a concentration of 10,000 µg/mL.
(§3) Activity was evaluated by determining the minimum inhibitory concentration (MIC) values using the microdilution method in Mueller–Hinton Broth (Beckton and Dickinson, Le Pont-de-Claix, France), in accordance with the standard procedure for assessing the antimicrobial susceptibility of microorganisms.
(§4) The analysis was conducted in 96-well microtiter plates (Medpolymer, Saint Petersburg, Russia). The bacterial inoculum was introduced within 15 min of preparation. […] Microbial growth in the presence of the tested compounds was compared to the growth control (without exposure to the test samples). The MIC was defined as the lowest concentration at which visible microbial growth was inhibited.

[2] = system: E. coli JW5503 kanS EF-G P610T; experiment: MIC in LB medium, aminoglycoside-resistant mutant EF-G P610T; type: cell-based; conditions: Escherichia coli, 18 h
Experimental: (§5) The determination of the minimum inhibitory concentration (MIC) was performed on three strains from the working collection of MSU: E. coli JW5503 [34], which lacked a kanamycin resistance cassette removed as per the method outlined in [39], and two strains derived from this strain through in vivo selection with kanamycin. The latter strains harbored P610T and P610L substitutions in the fusA gene. For the MIC determination, 100 μL (rows 2–11) and 200 μL (row 1) of LB liquid medium containing a 1:1000 dilution of overnight culture was added to each well of a 96-well transparent plate. Subsequently, 2 μL of a 50 μg/mL antibiotic solution was introduced into the first row, and serial two-fold dilutions were performed across each horizontal row, decreasing the antibiotic concentration incrementally. The final two rows were designated as controls: row 12 contained LB medium without cells or antibiotics, and row 11 contained cells without antibiotics. Following 18 h of incubation at 37 °C with constant agitation, the optical density at 590 nm (A590) was measured using a Victor X5 2030 spectrofluorometer (PerkinElmer, Waltham, MA, USA). The MIC was defined as the antibiotic concentration in the first well where no cell growth occurred. Each experiment was conducted in triplicate for all tested antibiotics.

E. coli JW5503 = experiment: MIC, broth microdilution, E. coli JW5503; type: cell-based; conditions: Escherichia coli, JW5503
Experimental: as §1, §2, §3, §4

M. smegmatis ATCC 607 = experiment: MIC, broth microdilution, M. smegmatis ATCC 607; type: cell-based; conditions: Mycolicibacterium smegmatis, ATCC607, Table 1, read-out: MIC
Experimental: as §1, §2, §3, §4

[3] = system: E. coli S30 Extract System, firefly luciferase synthesis; experiment: Cell-free translation inhibition assay (firefly luciferase synthesis); type: biochemical; conditions: final concentration of 2 μM; water = 100
Experimental: The inhibitory effects of the tested compounds on in vitro firefly luciferase synthesis were evaluated using the E. coli S30 Extract System for Linear Templates (Promega, Madison, WI, USA), as described previously. Briefly, reaction mixtures with a total volume of 5 μL were prepared, containing 0.1 mM of a mixture of all canonical amino acids, 4 U of RiboLock RNase Inhibitor (Thermo Fisher Scientific, Waltham, MA, USA), and 2 μM of the tested compounds. After pre-incubation at room temperature for 5 min, 100 ng of in vitro-transcribed firefly luciferase mRNA was added. The mixtures were then incubated at 37 °C for 20 min. After incubation, each reaction was supplemented with 5 μL of Bright-Glo™ reagent (Promega, Madison, WI, USA), and chemiluminescence was measured using a VICTOR X5 Multilabel Plate Reader (PerkinElmer, Waltham, MA, USA). The luminescence values were normalized to the negative control (water), which was assigned 100% activity.

[4] = system: E. coli JW5503 kanS EF-G P610L; experiment: MIC in LB medium, aminoglycoside-resistant mutant EF-G P610L; type: cell-based; conditions: Escherichia coli, 18 h
Experimental: as §5

[5] = P. aeruginosa strain, Table 2 column 3, head prints 27853
[6] = P. aeruginosa strain, Table 2 column 4, head prints 27853
[7] = P. aeruginosa strain, Table 2 column 5, head prints 27853
[8] = P. aeruginosa strain, Table 2 column 6, head prints 27853
[9] = P. aeruginosa strain, Table 2 column 7, head prints 27853
[10] = multidrug-resistant clinical isolates P. aeruginosa 21653 and P. aeruginosa 21571

| Structure (SMILES) | IC50 at 72 h (MTT cytotoxicity assay) [µg/mL] | MIC [1, 5] [µg/mL] | MIC [1, 6] [µg/mL] | MIC [1, 7] [µg/mL] | MIC [1, 8] [µg/mL] | MIC [1, 9] [µg/mL] | MIC [2] [µg/mL] | MIC (E. coli JW5503) [µg/mL] | MIC (M. smegmatis ATCC 607) [µg/mL] | % control signal (relative maximal rate of firefly luciferase accumulation in vitro) [3] [%] | MIC [4] [µg/mL] | resistance index ([1]; resistant clinical isolates of P. aeruginosa strains) | MIC [1, 10] [µg/mL] |
| --- | --- | --- | --- | --- | --- | --- | --- | --- | --- | --- | --- | --- | --- |
| NCCCNC[C@H]1O[C@H](O[C@@H]2[C@@H](O)[C@H](O[C@H]3O[C@H](CN)[C@@H](O)C[C@H]3N)[C@@H](N)C[C@H]2N)[C@H](O)[C@@H](N)[C@@H]1O [Compound 4b, 6″-(3-Aminopropyl-1-amino)-6″-deoxytobramycin acetate] | > 140 | 32 | 32 | > 32 | > 32 | > 32 | 80 | 8 | 0.125 | 7 | 80 |  |  |
| N=C(N)NCCCNC[C@H]1O[C@H](O[C@@H]2[C@@H](O)[C@H](O[C@H]3O[C@H](CN)[C@@H](O)C[C@H]3N)[C@@H](N)C[C@H]2N)[C@H](O)[C@@H](N)[C@@H]1O [Compound 6b, 6″-(3-Guanidinopropyl-1-amino)-6″-deoxytobramycin acetate] | > 140 | 16 | 32 | > 32 | > 32 | > 32 | 80 | 8 | 0.25 | 21 | 80 |  |  |
| NC[C@H]1O[C@H](O[C@H]2[C@H](O)[C@@H](O[C@H]3O[C@H](CO)[C@@H](O)[C@H](N)[C@H]3O)[C@H](N)C[C@@H]2N)[C@H](N)C[C@@H]1O [Tobramycin, tobramycin] | 58 ± 3 (≈ 124 µM) | > 128 | > 128 | > 128 | > 32 | > 32 | 20 (≈ 42.8 µM) | 1 (≈ 2.14 µM) | 0.06 (≈ 0.128 µM) | 0.01 | 40 (≈ 85.6 µM) | > 256 |  |
| NCCNC[C@H]1O[C@H](O[C@@H]2[C@@H](O)[C@H](O[C@H]3O[C@H](CN)[C@@H](O)C[C@H]3N)[C@@H](N)C[C@H]2N)[C@H](O)[C@@H](N)[C@@H]1O [Compound 4a, 6″-(2-Aminoethyamino)-6″-deoxytobramycin acetate] | > 140 | 16 | 32 | > 32 | > 32 | 32 | 40 | 2 | 0.125 | 0.02 | 40 |  | 16 to 32 |
| N=C(N)NCCNC[C@H]1O[C@H](O[C@@H]2[C@@H](O)[C@H](O[C@H]3O[C@H](CN)[C@@H](O)C[C@H]3N)[C@@H](N)C[C@H]2N)[C@H](O)[C@@H](N)[C@@H]1O [Compound 6a, 6″-(2-Guanidinoethylamino)-6″-deoxytobramycin acetate] | > 140 | 16 | 16 | > 32 | 32 | 32 | 40 | 4 | 0.125 | 0.4 | 40 |  | 16 to 32 |
